Patent US20240158797A1, “ANTISENSE OLIGONUCLEOTIDES FOR THEIR USE IN AN ANTI-CANCER TREATMENT” (UNIVERSITÉ GRENOBLE ALPES, priority 2021, published 2024)

What was measured:
[1] = tested on: 6-O-methylguanine DNA methyltransferase (MGMT) protein; assay: Test of the expression level of the MGMT protein (western blot) in T98G cells; type: cell-based; details: for levels of MGMT protein: T98G glioma cells, 100 μM ASO in lipofectamine 48 h, western blot vs ASO Scr, at least four repetitions
Procedure: (§1) The U87, T98G and U251 glioma cell lines are cultured in DMEM medium («Dulbecco/Vogt modified Eagle's minimal essential medium» supplemented with 10% fetal calf serum and 1% penicillin and streptomycin.
(§2) When the cultures are at 60% confluence, they are transfected with 100 μM of antisense oligonucleotide (ASO) RG6042 (of sequence SEQ ID NO: 1), or PH1 (SEQ ID NO: 2) or PH2 (SEQ ID NO: 3) or PH3 (SEQ ID NO: 4) or Scr in lipofectamine for 48 h. The ASO Scr (for «scramble» is an ASO serving as a control whose sequence SEQ ID NO: 5 is <A*CATG*>A*C*C*G*C*A*C*T*C*A*<CTAT*A> where * is a phosphorothioate bond and the bases between the signs < and > are 2′-O-methoxyethyl RNA.
Cells transfected with ASO RG6042, ASO Scr, or treated with lipofectamine alone (for control), are harvested for the test of the expression level of the MGMT protein.
The protocol is the same as for the previously cited test of the expression level of the HTT protein with the only change being the use of anti-MGMT antibodies (#2739, from the Cell signaling Technology® brand) in incubation to reveal the MGMT protein. The vinculin is also used here as a load control.
(§3) FIG. 4 illustrates in A the result of the western blot produced from cells of the T98G cell line having been transfected with ASO RG6042, with ASO Scr or treated with lipofectamine alone (Ctrl) and, in B, the quantification of MGMT protein levels obtained by western blot after at least 4 repetitions of the experiment presented in A.
(§4) T98G cells transfected with ASO RG6042, or ASO PH1, or ASO PH2 or ASO PH3, or ASO Scr, are harvested for testing the expression level of HTT proteins and MGMT.
(§5) The protocol is the same as for the previously cited tests for the expression level of the HTT protein and the expression level of the MGMT protein. The vinculin is also used here as a load control.
(§6) FIG. 6 illustrates the quantification of the protein levels of HTT in A and of MGMT in B, obtained by western blot after at least four repetitions of the experiment presented in FIG. 5. The statistics were carried out using the Kruskal-wallis test followed by Dunn's multiple comparison test, error bars, SEM, *p<0.05, **p<0.001.

huntingtin (HTT) protein = assay: Test of the expression level of the HTT protein in T98G cells transfected with ASO RG6042, PH1, PH2, PH3 or Scr; type: cell-based; details: T98G glioma cells, 100 μM ASO in lipofectamine 48 h; western blot vs ASO Scr, at least four repetitions
Procedure: as §1, §2
The cells are rinsed with phosphate-buffered saline (PBS) and then lysed in RIPA-type lysis buffer supplemented with protease and phosphatase inhibitors. The proteins solubilized in the buffer are harvested after centrifugation, denatured in Laemmli loading buffer and deposited on polyacrylamide gel. After migration, the proteins are transferred onto a polyvinylidine difluoride (PVDF) membrane. […] The vinculin is used as a load control.
as §4, §5
FIG. 5 illustrates the result of the western blot produced from cells of the T98G cell line having been transfected with ASO RG6042, with ASO PH1, with ASO PH2, with ASO PH3, or with ASO Scr.
as §6

huntingtin protein (HTT) = assay: Huntingtin (HTT) protein expression level test (western blot) in transfected glioma cells; type: cell-based; details: glioma cells (U251, U87, T98G) transfected with 100 μM ASO in lipofectamine for 48 h; western blot vs ASO Scr / lipofectamine alone
Procedure: as §1
as §2, with “RNA. […]” for “RNA.”
FIG. 1 illustrates in A the results of the western blot carried out from cells of the U251 cell line having been transfected with ASO RG6042, with the ASO Scr or simply treated with lipofectamine alone (Ctrl for control), and, in B, the quantification of HTT protein levels obtained by western blot after 4 repetitions of the experiment presented in A.
as §3, with “FIG. 2” for “FIG. 4”, “the U87” for “the T98G”, “alone (Ctrl),” for “alone (Ctrl)”, “of HTT” for “of MGMT”, “least 3” for “least 4”, “A. […]” for “A.”

U87 cell line = assay: Temozolomide (TMZ) sensitivity test (MTT), U87 line; type: cell-based; details: U87 cultures, RG6042 vs control
Procedure: as §1
as §2, with “RNA. […]” for “RNA.”
(§7) The yellow probe of MTT, 3-(4,5-Dimethyl-2-thiazolyl)-2,5-diphenyl-2H-tetrazolium bromide, is then added at a working concentration of 0.5 mg·ml^−1 to each well. […] The optical density (OD) of the contents of each well is then analyzed with a spectrophotometer at wavelengths comprised between 490 nm and 570 nm. […]
(§8) FIG. 9 illustrates in A a curve showing the percentage of living cells of the U87 line transfected with ASO RG6042 or treated with lipofectamine alone (Ctrl) as a function of the received dose of TMZ and, in B, the averages TMZ concentrations measured at the LD50 in 4 different MTT tests for cells of the U251 line transfected with ASO RG6042 or treated with lipofectamine alone (Ctrl).

U251 cell line [2] = assay: Temozolomide (TMZ) sensitivity test (MTT), U251 line; type: cell-based; details: U251 cultures, RG6042 vs control
Procedure: as §1
as §2, with “RNA. […]” for “RNA.”
as §7
as §8, with “8” for “9”, “live” for “living”, “U251” for “U87”, “average” for “averages”

T98G cell line [3] = assay: Temozolomide (TMZ) sensitivity test (MTT), T98G line; type: cell-based; details: T98G cultures, RG6042 vs control
Procedure: as §1
as §2, with “RNA. […]” for “RNA.”
as §7
as §8, with “FIG. 10” for “FIG. 9”, “the T98G” for “the U87”, “the average” for “the averages”, “in 6” for “in 4”, “the T98G” for “the U251”

U251 cell line [4] = assay: Sensitivity test to the alkylating agent Lomustine (MTT), U251 line; type: cell-based
Procedure: as §1, §2
(§9) The cells transfected with ASO RG6042 or ASO Scr are harvested for the sensitivity test to the alkylating agent Lomustine.
(§10) The Lomustine was prepared in the form of a stock solution of 50 mg/ml (214 mM) in pure ethanol. The solution was filtered to sterilize it (0.2 μm pore filter) and frozen at −20° C. until further use. […]
FIG. 11 illustrates in A a curve showing the percentage of living cells of the U251 line transfected with ASO RG6042 or Scr as a function of the dose of Lomustine received and, in B, the mean of the concentrations of Lomustine measured at the LD50 in 4 different MTT assays for U251 cell line transfected with ASO RG6042 or Scr.

T98G cell line [5] = assay: Sensitivity test to the alkylating agent Lomustine (MTT), T98G line; type: cell-based
Procedure: as §1, §2, §9, §10
FIG. 12 illustrates in A a curve showing the percentage of live cells of the T98G line transfected with ASO RG6042 or Scr as a function of the received dose of Lomustine and, in B, the mean of the concentrations of Lomustine measured at the LD50 in 4 different MTT assays for T98G cell line transfected with ASO RG6042 or Scr.

HTT = details: patients with Huntington's disease, after 4 intrathecal injections (Tabrizi et al. 2019); cited from earlier work

Row | Substance | levels of MGMT protein [1] | levels of HTT protein (huntingtin (HTT) protein) | HTT protein levels (huntingtin protein (HTT)) | MGMT levels ([1]; T98G cells transfected with 100 μM ASO in lipofectamine for 48 h, western blot vs ASO Scr / lipofectamine alone) | reduction in the LD50 at the TMZ (U87 cell line) | reduction in the LD50 at the TMZ (U251 cell line [2]) | reduction in the LD50 at the TMZ (T98G cell line [3]) | sensitization to the alkylating agent Lomustine (U251 cell line [4]; U251 cells) | reduction in the LD50 of Lomustine (U251 cell line [4]; U251 cultures, RG6042 vs Scr) | sensitization to the alkylating agent Lomustine (T98G cell line [5]; T98G cells) | reduction in the LD50 of Lomustine (T98G cell line [5]; T98G cultures, RG6042 vs Scr) | HTT levels in the cerebrospinal fluid (HTT)
1 | ASO PH1: antisense oligonucleotide of sequence SEQ ID NO: 2 reducing HTT and MGMT levels (antisense TCTCTATTGCACATTCCAAG; listed as DNA, chemistry not given here) | significantly reduce | significantly reduce |  |  |  |  |  |  |  |  |  | 
2 | ASO PH2: antisense oligonucleotide of sequence SEQ ID NO: 3 reducing HTT and MGMT levels (antisense CTCGACTAAAGCAGGATTTC; listed as DNA, chemistry not given here) | significantly reduce | significantly reduce |  |  |  |  |  |  |  |  |  | 
3 | ASO PH3: antisense oligonucleotide of sequence SEQ ID NO: 4 reducing HTT and MGMT levels (antisense CCTGCATCAGCTTTATTTGT; listed as DNA, chemistry not given here) | significantly reduce | significantly reduce |  |  |  |  |  |  |  |  |  | 
4 | ASO RG6042: antisense oligonucleotide of sequence SEQ ID NO: 1 targeting huntingtin mRNA; sequence from literature, clinical trials in Huntington's disease (antisense CTCAGTAACATTGACACCAC; listed as DNA, chemistry not given here) | significantly reduce | significantly reduce | significantly reduces | significantly reduces | 32% | 40% | 45% | sensitizes | 41% | sensitizes | 47% | decreased
